The results in this text go back to US20260308172A1, “TRICYCLIC COMPOUNDS FOR TREATMENT OF BACTERIAL INFECTIONS” (priority 2023, published 2026).

Assay [1] concerns Klebsiella pneumonia ATCC 43816. Put plainly: Minimal Inhibitory Concentration (MIC) assay, Klebsiella pneumonia ATCC 43816. The format is cell-based. Conditions: Klebsiella pneumoniae, ATCC43816, 20 h, read-out: MIC Klebsiella pneumoniae ATCC43816. On the procedure:
(§1) The antibacterial activity of the compounds of the present invention was evaluated against the commonly used quality control strain Escherichia coli ATCC 25922 and the rifampin-resistant mutant strain Klebsiella pneumonia ATCC 43816. Both were originally derived from human clinical samples and are available from ATCC (American Type Culture Collection). The in vitro potency of compounds to inhibit Escherichia coli (ATCC 25922) and Klebsiella pneumonia (ATCC 43816) growth was assessed by the MIC (Minimal Inhibitory Concentration) broth dilution method. Specifically compound dilutions were prepared from 10 mM DMSO stock solutions as follows: i) serial 2-fold dilution in 20 μL DMSO were prepared in a master plate (Greiner, Cat No: 651201), ii) 180 μL sterile distilled water was added to each aliquot and iii) 10 μL diluted compounds were transferred into a new assay plate (Costar, 3599).
(§2) Vials of each test microorganisms were maintained frozen in the vapor phase of a liquid nitrogen freezer. Single-use frozen vials of the two strains Escherichia coli ATCC 25922 (KWIKSTIK, 0335K) and Klebsiella pneumonia ATCC 43816, with predetermined CFU/mL, were taken out from the freezer, thawed at room temperature, and diluted in Cation-Adjusted Mueller Hinton Broth (CAMHB) to achieve a final inoculum of 5×10^5 CFU/mL. 90 μL bacteria containing broth was dispensed to the assay plate containing the pre-dispensed compound dilutions and mixed by pipetting 5 times.
(§3) Then the assay plates were incubated for 20 hours at 35° C. in ambient air. Following incubation, the MIC (μg/mL), the lowest concentration of drug that inhibits visible growth of the microorganism was read with the help of a magnification mirror and recorded.

In assay [2] the test system is Escherichia coli ATCC 25922. Kind of assay: Minimal Inhibitory Concentration (MIC) assay, Escherichia coli ATCC 25922. Conditions: ATCC25922, 20 h, read-out: MIC Escherichia coli ATCC25922. The format is cell-based. On the procedure:
as §1, §2, §3

Values after ≈ are worked out from the molar mass of the structure shown.

Broadly, the MIC is the lowest concentration found to suppress growth. With `O=C1CC(NC2CCNCC2)C2COc3cc(S(=O)(=O)N4CCN(c5cc(C(F)(F)[C@@H]6COCCO6)cc(Cl)n5)CC4)ccc3N12` (mixture of isomers) [Example 027, 7-[4-[6-Chloro-4-[difluoro-[rac-(2S)-1,4-dioxan-2-yl]methyl]-2-pyridyl]piperazin-1-yl]sulfonyl-3-(4-piperidylamino)-2,3,3a,4-tetrahydropyrrolo[2,1-c][1,4]benzoxazin-1-one], the results for the MIC in assay [1] and in assay [2] were 2.14 µg/mL (≈ 3.13 µM) and 2.1 µg/mL (≈ 3.07 µM), respectively.

Turning to `NC[C@@H]1OC(=O)N2c3ccc(S(=O)(=O)N4CCN(c5cc(C(F)(F)F)cc(Cl)n5)CC4)cc3OC[C@@H]12` (relative stereo) [Example 001], the MIC in assay [1] and in assay [2] was 0.46 µg/mL (≈ 0.84 µM) in each case.

With `NC[C@@H]1OC(=O)N2c3ccc(S(=O)(=O)N4CCN(c5cc(S(=O)(=O)C6CC6)cc(Cl)n5)CC4)cc3OC[C@@H]12` (relative stereo) [Example 003], the MIC is 1.94 µg/mL (≈ 3.32 µM) in assay [1] and 0.97 µg/mL (≈ 1.66 µM) in assay [2].

Turning to `NC[C@@H]1OC(=O)N2c3ccc(S(=O)(=O)N4CCN(c5cc(S(=O)(=O)c6ccc(N)cc6)cc(Cl)n5)CC4)cc3OC[C@@H]12` (relative stereo) [Example 004], the MIC in assay [1] was 0.26 µg/mL (≈ 0.409 µM); in assay [2] it was 0.52 µg/mL (≈ 0.819 µM).

Take `NC[C@H]1OC(=O)N2c3ccc(S(=O)(=O)N4CCN(c5cc(S(=O)(=O)C6CC6)cc(Cl)n5)CC4)cc3OC[C@@H]12` (relative stereo) [Example 005]: the MIC in assay [1] was 1 µg/mL (≈ 1.71 µM); in assay [2] it was 0.97 µg/mL (≈ 1.66 µM).

As for `NC[C@@H]1OC(=O)N2c3ccc(S(=O)(=O)N4CCN(c5cc(C(F)(F)C6C7COCC76)cc(Cl)n5)CC4)cc3OC[C@@H]12` (relative stereo) [Example 018], the MIC in assay [1] and in assay [2] was 0.28 µg/mL (≈ 0.457 µM) throughout.

With `Cc1cc(C(F)(F)c2cc(Cl)nc(N3CCN(S(=O)(=O)c4ccc5c(c4)OC[C@H]4[C@H](CN)OC(=O)N54)CC3)c2)ccn1` (relative stereo) [Example 019], the MIC in assay [1] was 0.28 µg/mL (≈ 0.451 µM); in assay [2], 0.29 µg/mL (≈ 0.467 µM).

With `O=C1O[C@@H](CO)[C@@H]2COc3cc(S(=O)(=O)N4CCN(c5cc(C(F)(F)[C@@H]6CNCCO6)cc(Cl)n5)CC4)ccc3N12` (relative stereo) [Example 050, trans-7-[4-[6-chloro-4-[difluoro-[(2S)-morpholin-2-yl]methyl]-2-pyridyl]piperazin-1-yl]sulfonyl-3-(hydroxymethyl)-3a,4-dihydro-3H-oxazolo[4,3-c][1,4]benzoxazin-1-one], the MIC in assay [1] and in assay [2] was 0.48 µg/mL (≈ 0.779 µM) throughout.

`CN1CCC(C(F)(F)c2cc(Cl)nc(N3CCN(S(=O)(=O)c4ccc5c(c4)OC[C@H]4[C@@H](CN)OC(=O)N54)CC3)c2)CC1` (stereo in doubt) [Example 010, cis-3-(aminomethyl)-7-[4-[6-chloro-4-[difluoro-(1-methyl-4-piperidyl)methyl]-2-pyridyl]piperazin-1-yl]sulfonyl-3a,4-dihydro-3H-oxazolo[4,3-c][1,4]benzoxazin-1-one]: the MIC in assay [1] and in assay [2] was 0.98 µg/mL (≈ 1.56 µM) in each case.

As for `NC[C@H]1OC(=O)N2c3ccc(S(=O)(=O)N4CCN(c5cc(C(F)(F)C6COCCO6)cc(Cl)n5)CC4)cc3OC[C@H]12` (stereo in doubt) [Example 017, trans-3-(aminomethyl)-7-[4-[6-chloro-4-[1,4-dioxan-2-yl(difluoro)methyl]-2-pyridyl]piperazin-1-yl]sulfonyl-3a,4-dihydro-3H-oxazolo[4,3-c][1,4]benzoxazin-1-one], the MIC in assay [1] and in assay [2] was 0.57 µg/mL (≈ 0.925 µM) throughout.

Turning to `CN1CC=C(C(F)(F)c2cc(Cl)nc(N3CCN(S(=O)(=O)c4ccc5c(c4)OC[C@H]4[C@@H](CN)OC(=O)N54)CC3)c2)CC1` (stereo in doubt) [Example 020, cis-3-(aminomethyl)-7-[4-[6-chloro-4-[difluoro-(1-methyl-3,6-dihydro-2H-pyridin-4-yl)methyl]-2-pyridyl]piperazin-1-yl]sulfonyl-3a,4-dihydro-3H-oxazolo[4,3-c][1,4]benzoxazin-1-one], the MIC in assay [1] and in assay [2] was 0.29 µg/mL (≈ 0.464 µM) each time.

As for `O=C1O[C@H](CO)[C@@H]2COc3cc(S(=O)(=O)N4CCN(c5cc(C(F)(F)[C@H]6CNCCO6)cc(Cl)n5)CC4)ccc3N12` (stereo in doubt) [Example 032, cis-7-[4-[6-chloro-4-[difluoro-[(2R)-morpholin-2-yl]methyl]-2-pyridyl]piperazin-1-yl]sulfonyl-3-(hydroxymethyl)-3a,4-dihydro-3H-oxazolo[4,3-c][1,4]benzoxazin-1-one], the MIC is 0.241 µg/mL (≈ 0.391 µM) in assay [1] and 0.24 µg/mL (≈ 0.39 µM) in assay [2].

For the molecule `NC1CC(=O)N2c3ccc(S(=O)(=O)N4CCN(c5cc(C(F)(F)C6COCCO6)cc(Cl)n5)CC4)cc3OCC12` (stereo not shown) [Example 008, 3-Amino-7-[4-[6-chloro-4-[1,4-dioxan-2-yl(difluoro)methyl]-2-pyridyl]piperazin-1-yl]sulfonyl-2,3,3a,4-tetrahydropyrrolo[2,1-c][1,4]benzoxazin-1-one], the MIC in assay [1] and in assay [2] was 0.5 µg/mL (≈ 0.833 µM) throughout.

Turning to `Cc1cc(C(F)(F)F)nc(N2CCN(S(=O)(=O)c3ccc4c(c3)OCC3CCC(=O)N43)CC2)n1` (stereo not shown) [Example 011, 7-[4-[4-Methyl-6-(trifluoromethyl)pyrimidin-2-yl]piperazin-1-yl]sulfonyl-2,3,3a,4-tetrahydropyrrolo[2,1-c][1,4]benzoxazin-1-one], the MIC in assay [1] came out at 2.87 µg/mL (≈ 5.77 µM); in assay [2] it was 1.4 µg/mL (≈ 2.81 µM).

As to `O=C1CCC2COc3cc(S(=O)(=O)N4CCN(c5cc(C(F)(F)F)cc(Cl)n5)CC4)ccc3N12` (stereo not shown) [Example 012, 7-[4-[6-Chloro-4-(trifluoromethyl)-2-pyridyl]piperazin-1-yl]sulfonyl-2,3,3a,4-tetrahydropyrrolo[2,1-c][1,4]benzoxazin-1-one], the MIC in assay [2] was 0.61 µg/mL (≈ 1.18 µM).

In the case of `Nc1ccc(S(=O)(=O)c2cc(Cl)nc(N3CCN(S(=O)(=O)c4ccc5c(c4)OCC4CCC(=O)N54)CC3)c2)cc1` (stereo not shown) [Example 013, 7-[4-[4-(4-Aminophenyl)sulfonyl-6-chloro-2-pyridyl]piperazin-1-yl]sulfonyl-2,3,3a,4-tetrahydropyrrolo[2,1-c][1,4]benzoxazin-1-one], the MIC in assay [1] was 0.24 µg/mL (≈ 0.397 µM); in assay [2], 0.47 µg/mL (≈ 0.778 µM).

`Nc1ccc(S(=O)(=O)c2cc(Br)nc(N3CCN(S(=O)(=O)c4ccc5c(c4)OCC4CCC(=O)N54)CC3)c2)cc1` (stereo not shown) [Example 014, 7-[4-[4-(4-Aminophenyl)sulfonyl-6-bromo-2-pyridyl]piperazin-1-yl]sulfonyl-2,3,3a,4-tetrahydropyrrolo[2,1-c][1,4]benzoxazin-1-one]: the MIC in assay [1] and in assay [2] was 0.51 µg/mL (≈ 0.786 µM) in each case.

With `Cc1cc(C(F)(F)F)nc(N2CCN(S(=O)(=O)c3ccc4c(c3)OC[C@@H]3[C@H](CO)OC(=O)N43)CC2)n1` [Example 015, (3R,3aR)-3-(hydroxymethyl)-7-[4-[4-methyl-6-(trifluoromethyl)pyrimidin-2-yl]piperazin-1-yl]sulfonyl-3a,4-dihydro-3H-oxazolo[4,3-c][1,4]benzoxazin-1-one], the MIC came to 0.76 µg/mL (≈ 1.44 µM) in assay [1] and 0.5 µg/mL (≈ 0.944 µM) in assay [2].

`CN1CCC(C(F)(F)c2cc(Cl)nc(N3CCN(S(=O)(=O)c4ccc5c(c4)OCC4CCC(=O)N54)CC3)c2)CC1` (stereo not shown) [Example 016, 7-[4-[6-Chloro-4-[difluoro-(1-methyl-4-piperidyl)methyl]-2-pyridyl]piperazin-1-yl]sulfonyl-2,3,3a,4-tetrahydropyrrolo[2,1-c][1,4]benzoxazin-1-one]: the MIC in assay [1] came out at 1.86 µg/mL (≈ 3.12 µM); in assay [2], 1.9 µg/mL (≈ 3.19 µM).

On to `NC[C@H]1OC(=O)N2c3ccc(S(=O)(=O)N4CCN(c5cc(C(F)(F)[C@@H]6COCCO6)cc(Cl)n5)CC4)cc3OC[C@@H]12` [Example 021, (3R,3aS)-3-(Aminomethyl)-7-[4-[6-chloro-4-[[(2S)-1,4-dioxan-2-yl]-difluoro-methyl]-2-pyridyl]piperazin-1-yl]sulfonyl-3a,4-dihydro-3H-oxazolo[4,3-c][1,4]benzoxazin-1-one], for which the MIC in assay [1] was determined as 0.51 µg/mL (≈ 0.828 µM); in assay [2], 0.26 µg/mL (≈ 0.422 µM).

Take `NC[C@@H]1OC(=O)N2c3ccc(S(=O)(=O)N4CCN(c5cc(C(F)(F)[C@@H]6COCCO6)cc(Cl)n5)CC4)cc3OC[C@H]12` [Example 022, (3S,3aR)-3-(aminomethyl)-7-[4-[6-chloro-4-[[(2S)-1,4-dioxan-2-yl]-difluoro-methyl]-2-pyridyl]piperazin-1-yl]sulfonyl-3a,4-dihydro-3H-oxazolo[4,3-c][1,4]benzoxazin-1-one]: the figures for the MIC in assay [1] and in assay [2] were 0.3 µg/mL (≈ 0.487 µM) and 0.44 µg/mL (≈ 0.714 µM), respectively.

With `NC[C@@H]1OC(=O)N2c3ccc(S(=O)(=O)N4CCN(c5cc(C(F)(F)[C@H]6CNCCO6)cc(Cl)n5)CC4)cc3OC[C@@H]12` [Example 023, (3S,3aS)-3-(aminomethyl)-7-[4-[6-chloro-4-[difluoro-[(2R)-morpholin-2-yl]methyl]-2-pyridyl]piperazin-1-yl]sulfonyl-3a,4-dihydro-3H-oxazolo[4,3-c][1,4]benzoxazin-1-one], the MIC in assay [1] and in assay [2] was 0.33 µg/mL (≈ 0.537 µM) throughout.
